Laboratory results reported in paper PMC6483395 (Synlett : accounts and rapid communications in synthetic …, 2017).

Target: T1, NapH1 (Streptomyces sp. CNQ-525, UniProt A7KH27)
T1 sequence (A7KH27 42-527): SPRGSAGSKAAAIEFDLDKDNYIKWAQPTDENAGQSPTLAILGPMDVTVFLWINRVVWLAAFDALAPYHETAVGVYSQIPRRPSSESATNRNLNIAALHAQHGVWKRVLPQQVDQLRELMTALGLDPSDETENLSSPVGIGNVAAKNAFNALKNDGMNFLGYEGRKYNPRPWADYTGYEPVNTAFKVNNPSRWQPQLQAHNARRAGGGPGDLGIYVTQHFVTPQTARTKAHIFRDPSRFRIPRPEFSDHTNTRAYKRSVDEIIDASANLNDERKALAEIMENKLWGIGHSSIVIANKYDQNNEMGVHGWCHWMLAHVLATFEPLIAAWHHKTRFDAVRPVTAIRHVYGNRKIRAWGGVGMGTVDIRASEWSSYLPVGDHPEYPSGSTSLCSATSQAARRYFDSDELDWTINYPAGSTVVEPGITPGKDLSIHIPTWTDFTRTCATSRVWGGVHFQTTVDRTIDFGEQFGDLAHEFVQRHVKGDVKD
Test: crystal structure
Assay type: binding
Settings: homodimer; structures with and without vanadate

[O]=[V]([OH])([OH])[OH] [vanadate]
crystal structure: we solved the three-dimensional structures of the homodimeric NapH1 with and without vanadate
